Reference: PubChem BioAssay (NCI)
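Method: 48-hour compound exposure of cells in 96-well plates, five concentrations, linear interpolation of endpoints. Abbreviation: GI50, concentration required for 50% inhibition of growth. TGI: concentration producing complete growth inhibition.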

Legend:
Test in all cases: inhibition of tumour cell growth, NCI panel, 48 h
HT29 colon = tested on: HT29 colon
MDA-MB-435 = tested on: MDA-MB-435
SF-268 CNS = tested on: SF-268 CNS
SR leukemia = tested on: SR leukemia
SK-OV-3 ovarian = tested on: SK-OV-3 ovarian
K-562 leukemia = tested on: K-562 leukemia
MDA-MB-231 breast = tested on: MDA-MB-231 breast
HCT-116 colon = tested on: HCT-116 colon
SK-MEL-28 melanoma = tested on: SK-MEL-28 melanoma
SK-MEL-5 melanoma = tested on: SK-MEL-5 melanoma
M14 melanoma = tested on: M14 melanoma
LOX IMVI melanoma = tested on: LOX IMVI melanoma
HOP-62 NSCLC = tested on: HOP-62 NSCLC
OVCAR-3 ovarian = tested on: OVCAR-3 ovarian
SNB-75 CNS = tested on: SNB-75 CNS
NCI-H23 lung = tested on: NCI-H23 lung
SNB-19 CNS = tested on: SNB-19 CNS
MCF7 breast = tested on: MCF7 breast
PC-3 prostate = tested on: PC-3 prostate
NCI-H460 lung = tested on: NCI-H460 lung
IGROV1 ovarian = tested on: IGROV1 ovarian
SF-295 CNS = tested on: SF-295 CNS
RPMI-8226 leukemia = tested on: RPMI-8226 leukemia
KM12 colon = tested on: KM12 colon
UACC-257 melanoma = tested on: UACC-257 melanoma
COLO 205 colon = tested on: COLO 205 colon
A549 NSCLC = tested on: A549 NSCLC
CCRF-CEM leukemia = tested on: CCRF-CEM leukemia
NCI-H226 lung = tested on: NCI-H226 lung
CAKI-1 renal = tested on: CAKI-1 renal
MALME-3M melanoma = tested on: MALME-3M melanoma
OVCAR-5 ovarian = tested on: OVCAR-5 ovarian
HS 578T breast = tested on: HS 578T breast
DU-145 prostate = tested on: DU-145 prostate
786-0 renal = tested on: 786-0 renal
BT-549 breast = tested on: BT-549 breast
HOP-92 NSCLC = tested on: HOP-92 NSCLC
SF-539 CNS = tested on: SF-539 CNS
HCT-15 colon = tested on: HCT-15 colon
SN12C renal = tested on: SN12C renal
MOLT-4 leukemia = tested on: MOLT-4 leukemia
UO-31 renal = tested on: UO-31 renal
OVCAR-4 ovarian = tested on: OVCAR-4 ovarian
NCI-H522 lung = tested on: NCI-H522 lung
T-47D breast = tested on: T-47D breast
UACC-62 melanoma = tested on: UACC-62 melanoma
TK-10 renal = tested on: TK-10 renal
ACHN renal = tested on: ACHN renal
A498 renal = tested on: A498 renal
RXF 393 renal = tested on: RXF 393 renal
HCC-2998 colon = tested on: HCC-2998 colon
OVCAR-8 ovarian = tested on: OVCAR-8 ovarian
HL-60(TB) leukemia = tested on: HL-60(TB) leukemia
SK-MEL-2 melanoma = tested on: SK-MEL-2 melanoma
U251 CNS = tested on: U251 CNS
SW-620 colon = tested on: SW-620 colon

Compound: COc1ccc(C(=O)/C=C/c2cc(-c3ccc4c(c3)OCO4)n[nH]2)cc1OC
- GI50 (HT29 colon): 2.98 µM
- TGI (HT29 colon): 11.3 µM
- GI50 (MDA-MB-435): 3.03 µM
- TGI (MDA-MB-435): 10 µM
- GI50 (SF-268 CNS): 2.53 µM
- TGI (SF-268 CNS): 7.61 µM
- GI50 (SR leukemia): 1.27 µM
- TGI (SR leukemia): 6.48 µM
- GI50 (SK-OV-3 ovarian): 3.97 µM
- TGI (SK-OV-3 ovarian): 26.4 µM
- GI50 (K-562 leukemia): 2.47 µM
- TGI (K-562 leukemia): 16.7 µM
- GI50 (MDA-MB-231 breast): 2.44 µM
- TGI (MDA-MB-231 breast): 7.39 µM
- GI50 (HCT-116 colon): 2.43 µM
- TGI (HCT-116 colon): 7.99 µM
- GI50 (SK-MEL-28 melanoma): 5.76 µM
- TGI (SK-MEL-28 melanoma): 19.3 µM
- GI50 (SK-MEL-5 melanoma): 6.74 µM
- TGI (SK-MEL-5 melanoma): 19.9 µM
- GI50 (M14 melanoma): 6.36 µM
- TGI (M14 melanoma): 21.4 µM
- GI50 (LOX IMVI melanoma): 1.97 µM
- TGI (LOX IMVI melanoma): 4.08 µM
- GI50 (HOP-62 NSCLC): 2.08 µM
- TGI (HOP-62 NSCLC): 5.6 µM
- GI50 (OVCAR-3 ovarian): 2.02 µM
- TGI (OVCAR-3 ovarian): 4.61 µM
- GI50 (SNB-75 CNS): 1.98 µM
- TGI (SNB-75 CNS): 7.57 µM
- GI50 (NCI-H23 lung): 4.12 µM
- TGI (NCI-H23 lung): 19.6 µM
- GI50 (SNB-19 CNS): 3.2 µM
- TGI (SNB-19 CNS): 15.2 µM
- GI50 (MCF7 breast): 3.27 µM
- TGI (MCF7 breast): 16.8 µM
- GI50 (PC-3 prostate): 2.58 µM
- TGI (PC-3 prostate): 18.2 µM
- GI50 (NCI-H460 lung): 1.81 µM
- TGI (NCI-H460 lung): 4.05 µM
- GI50 (IGROV1 ovarian): 2.79 µM
- TGI (IGROV1 ovarian): 9.2 µM
- GI50 (SF-295 CNS): 2.51 µM
- TGI (SF-295 CNS): 6.15 µM
- GI50 (RPMI-8226 leukemia): 1.03 µM
- TGI (RPMI-8226 leukemia): 5.24 µM
- GI50 (KM12 colon): 2.86 µM
- TGI (KM12 colon): 9.48 µM
- GI50 (UACC-257 melanoma): 7.06 µM
- TGI (UACC-257 melanoma): 22.1 µM
- GI50 (COLO 205 colon): 3.84 µM
- TGI (COLO 205 colon): 14 µM
- GI50 (A549 NSCLC): 2.7 µM
- TGI (A549 NSCLC): 15.8 µM
- GI50 (CCRF-CEM leukemia): 2.52 µM
- TGI (CCRF-CEM leukemia): 9.58 µM
- GI50 (NCI-H226 lung): 3.4 µM
- TGI (NCI-H226 lung): 11.2 µM
- GI50 (CAKI-1 renal): 1.9 µM
- TGI (CAKI-1 renal): 4.33 µM
- GI50 (MALME-3M melanoma): 7.32 µM
- TGI (MALME-3M melanoma): 22.8 µM
- GI50 (OVCAR-5 ovarian): 3.36 µM
- TGI (OVCAR-5 ovarian): 23.2 µM
- GI50 (HS 578T breast): 2.69 µM
- TGI (HS 578T breast): 8.21 µM
- GI50 (DU-145 prostate): 1.87 µM
- TGI (DU-145 prostate): 4.27 µM
- GI50 (786-0 renal): 3.12 µM
- TGI (786-0 renal): 11.4 µM
- GI50 (BT-549 breast): 1.97 µM
- TGI (BT-549 breast): 4.21 µM
- GI50 (HOP-92 NSCLC): 2.16 µM
- TGI (HOP-92 NSCLC): 8.11 µM
- GI50 (SF-539 CNS): 1.91 µM
- TGI (SF-539 CNS): 4.47 µM
- GI50 (HCT-15 colon): 2.81 µM
- TGI (HCT-15 colon): > 100 µM
- GI50 (SN12C renal): 3.25 µM
- TGI (SN12C renal): 13.6 µM
- GI50 (MOLT-4 leukemia): 3 µM
- TGI (MOLT-4 leukemia): 10.3 µM
- GI50 (UO-31 renal): 2.32 µM
- TGI (UO-31 renal): 10.1 µM
- GI50 (OVCAR-4 ovarian): 2.11 µM
- TGI (OVCAR-4 ovarian): 40.3 µM
- GI50 (NCI-H522 lung): 1.82 µM
- TGI (NCI-H522 lung): 4.44 µM
- GI50 (T-47D breast): 3.23 µM
- TGI (T-47D breast): 26.1 µM
- GI50 (UACC-62 melanoma): 4.1 µM
- TGI (UACC-62 melanoma): 14.8 µM
- GI50 (TK-10 renal): 2.88 µM
- TGI (TK-10 renal): 8.97 µM
- GI50 (ACHN renal): 3.49 µM
- TGI (ACHN renal): 56.5 µM
- GI50 (A498 renal): 1.55 µM
- TGI (A498 renal): 4.23 µM
- GI50 (RXF 393 renal): 2.42 µM
- TGI (RXF 393 renal): 5.39 µM
- GI50 (HCC-2998 colon): 4.99 µM
- TGI (HCC-2998 colon): 17.3 µM
- GI50 (OVCAR-8 ovarian): 2.15 µM
- TGI (OVCAR-8 ovarian): 5.82 µM
- GI50 (HL-60(TB) leukemia): 2.82 µM
- TGI (HL-60(TB) leukemia): 11.8 µM
- GI50 (SK-MEL-2 melanoma): 6.93 µM
- TGI (SK-MEL-2 melanoma): 23.2 µM
- GI50 (U251 CNS): 1.58 µM
- TGI (U251 CNS): 5.37 µM
- GI50 (SW-620 colon): 2.05 µM
- TGI (SW-620 colon): 4.81 µM
